Experiment [1] has as its system HAP1 MTAP-deleted cell line. The experiment in a line: Viability assay, MTAP-deleted cell line. It is filed as cell-based. The conditions noted are these: Homo sapiens, read-out: HAP1 MTAP deleted viability. The source says:
Table 1 additionally indicates IC50 values in a viability assay for the MTAP-deleted cell line (column 10), indicating the effect of treatment with compound on cell survival.

The test system of experiment [2] is HAP1 MTAP-deleted cell line. The experiment in a line: SDMA in-cell western assay, HAP1 MTAP-deleted. It is filed as cell-based. The conditions noted are these: for IC50: HAP1 MTAP-deleted. Put shortly:
(§1)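 MTAP-null vs endogenous-MTAP HAP1 isogenic cells; in-cell western SDMA readout; IC50 per line.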

The target in experiment [3] is T1, PRMT5 (Homo sapiens, UniProt O14744).
T1 construct: purchased Viva (custom protein)
T1 sequence (O14744 whole entry): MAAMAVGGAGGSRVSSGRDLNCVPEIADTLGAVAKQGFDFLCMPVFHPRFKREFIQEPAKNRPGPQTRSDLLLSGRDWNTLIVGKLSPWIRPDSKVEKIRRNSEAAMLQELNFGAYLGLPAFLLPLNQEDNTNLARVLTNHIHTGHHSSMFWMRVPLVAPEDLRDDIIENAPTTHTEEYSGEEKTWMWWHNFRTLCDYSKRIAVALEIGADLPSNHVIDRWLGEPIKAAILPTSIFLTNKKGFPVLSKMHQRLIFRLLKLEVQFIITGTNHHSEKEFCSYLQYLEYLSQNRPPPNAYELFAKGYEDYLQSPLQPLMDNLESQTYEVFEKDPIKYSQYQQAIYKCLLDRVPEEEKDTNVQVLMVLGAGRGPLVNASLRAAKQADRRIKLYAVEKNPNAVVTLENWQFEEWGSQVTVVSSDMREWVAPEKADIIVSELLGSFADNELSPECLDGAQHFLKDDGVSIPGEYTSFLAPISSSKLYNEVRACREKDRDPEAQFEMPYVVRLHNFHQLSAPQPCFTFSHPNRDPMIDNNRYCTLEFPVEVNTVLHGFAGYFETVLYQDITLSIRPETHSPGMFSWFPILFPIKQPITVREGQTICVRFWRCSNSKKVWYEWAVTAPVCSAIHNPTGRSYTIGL
T1 sequence (Q9BQA1 whole entry partner): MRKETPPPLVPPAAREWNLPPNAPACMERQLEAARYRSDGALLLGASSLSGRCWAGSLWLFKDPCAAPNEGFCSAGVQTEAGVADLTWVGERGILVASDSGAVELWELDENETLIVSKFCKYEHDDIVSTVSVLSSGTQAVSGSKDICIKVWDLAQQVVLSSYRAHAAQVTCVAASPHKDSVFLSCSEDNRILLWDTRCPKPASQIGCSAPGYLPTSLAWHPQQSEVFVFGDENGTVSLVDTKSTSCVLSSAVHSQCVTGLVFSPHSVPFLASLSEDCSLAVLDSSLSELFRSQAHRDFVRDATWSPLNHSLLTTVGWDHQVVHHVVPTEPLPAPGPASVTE
In words: PRMT5 biochemical IC50 assay with no cofactor. The conditions noted are these: PRMT5, no cofactor. The source says: Table 1 indicates IC50 values (μM) against PRMT5 for exemplary compounds in the presence of SAM as cofactor, with no cofactor, and with MTA as cofactor, respectively (columns 4-6). […] Ki values can be calculated from the IC50 values as described in the Examples section. As detailed in the Examples section, for the assay performed in the presence of SAM, IC50=Ki×1.5 (Ki=IC50/1.5).

The target in experiment [4] is T1, PRMT5. The experiment in a line: PRMT5 biochemical IC50 assay with MTA as cofactor. The note with it: PRMT5, MTA as cofactor; read-out: MTA IC50.
Experiment [5] has as its target T1, PRMT5. The experiment in a line: PRMT5 biochemical IC50 assay with SAM as cofactor. The conditions noted are these: PRMT5, SAM as cofactor; read-out: SAM IC50.
Experiment [6] has as its system HAP1 MTAP-intact cell line. The experiment in a line: SDMA in-cell western assay, HAP1 MTAP-intact. It is filed as cell-based. The conditions noted are these: Homo sapiens, HAP1, SDMA in-cell western, HAP1 MTAP-intact; read-out: MTAP HAP1 intact IC50. Put shortly:
as §1

Setting [7] is: HAP1, viability assay, MTAP-deleted cell line.
The mark [8] stands for this setting: Homo sapiens, HAP1, SDMA in-cell western, read-out: HAP1 MTAP deleted IC50.
Setting [9] is: IC50 ratio HAP1 MTAP-intact / HAP1 MTAP-deleted, SDMA in-cell western.
Setting [10] is: HAP1, viability, HAP1 MTAP-deleted cell line.
The mark [11] stands for this setting: Homo sapiens, HAP1, SDMA in-cell western, read-out: HAP 1 MTAP deleted IC50.
The mark [12] stands for this setting: read-out: No Cofactor/ rel IC50.
[13] abbreviates: IC50 ratio HAP1 MTAP-intact vs HAP1 MTAP-deleted, SDMA in-cell western.
[14] abbreviates: HAP1, viability IC50, MTAP-deleted cell line.

Regarding `C[C@@H]1CC[C@@H](c2cncc(F)c2)N(C(=O)C(=O)Nc2cncc(C(N)=O)c2)C1` (racemic) [Compound 248, rac-5-{2-[(2R,5S)-2-(5-Fluoropyridin-3-yl)-5-methylpiperidin-1-yl]-2-oxoacetamido}pyridine-3-carboxamide], the IC50 in experiment [1] (setting [7]) was > 10000 nM; in experiment [2] (setting [8]) it was > 1000 nM; on PRMT5 [3] (read-out: No Cofactor/rel IC50), > 500 nM; at PRMT5 [4], 50 to 500 nM; at PRMT5 [5], > 500 nM; in experiment [6], > 1000 nM. In addition, in experiment [2] (setting [9]), the MTAP intact/deleted ratio entry is given as “B (an IC50 ratio greater than or equal to 3 fold but lower than 10 fold)”.
Consider `CCc1cc(NC(=O)C(=O)N2C[C@@H](C)CC[C@@H]2c2cc(Cl)cc(OCCN(C)C)c2)cnc1N` [Compound 1247, N-(6-amino-5-ethylpyridin-3-yl)-2-((2R,5S)-2-(3-chloro-5-(2-(dimethylamino)ethoxy)phenyl)-5-methylpiperidin-1-yl)-2-oxoacetamide], for which the IC50 in experiment [1] (setting [10]) was < 1000 nM; in experiment [2] (setting [11]) it was < 100 nM; on PRMT5 [3] (setting [12]) it was < 50 nM; on PRMT5 [4] it was < 50 nM; on PRMT5 [5], < 50 nM; in experiment [6] it was 100 to 1000 nM. For the same compound, the “MTAP intact/deleted ratio” value in experiment [2] (setting [9]) is listed as “A (an IC50 ratio greater than or equal to 10 fold)”.
Regarding `CCc1cc(NC(=O)C(=O)N2C[C@@H](C)[C@H](OC(C)C)C[C@@H]2c2ccc3scnc3c2)cnc1N` (racemic) [Compound 1343, N-(6-Amino-5-ethyl-3-pyridyl)-2-[(2S,4S,5S)-2-(1,3-benzothiazol-5-yl)-4-isopropoxy-5-methyl-1-piperidyl]-2-oxo-acetamide], the IC50 was < 1000 nM in experiment [1] (setting [10]); < 100 nM in experiment [2] (setting [11]); 50 to 500 nM on PRMT5 [3] (setting [12]); 50 to 500 nM at PRMT5 [4]; 50 to 500 nM on PRMT5 [5]; 100 to 1000 nM in experiment [6]. The “MTAP intact/deleted ratio” value in experiment [2] (setting [9]) is “A (an IC50 ratio greater than or equal to 10 fold)”.
With `CC[C@@H]1CC[C@@H](c2cn[nH]c2)N(C(=O)C(=O)Nc2cnc(N)c(C)c2)C1` (racemic) [Compound 1032, N-(6-amino-5-methyl-3-pyridyl)-2-[(2R,5S)-5-ethyl-2-(1H-pyrazol-4-yl)-1-piperidyl]-2-oxo-acetamide], the IC50 in experiment [1] (setting [7]) was 1000 to 10000 nM; in experiment [2] (setting [11]), < 100 nM; at PRMT5 [3] (read-out: No Cofactor/rel IC50), 50 to 500 nM; at PRMT5 [4] it was 50 to 500 nM; on PRMT5 [5], 50 to 500 nM; in experiment [6], 100 to 1000 nM. In addition, the MTAP intact/deleted ratio entry in experiment [2] (setting [9]) was “B (an IC50 ratio greater than or equal to 3 fold but lower than 10 fold)”.
Turning to `COc1ncc(NC(=O)C(=O)N2C[C@@H](C)CC[C@@H]2c2cc(Cl)cc(Cl)c2)cc1C(N)=O` (single isomer, unassigned) [Compound 945], the IC50 in experiment [1] (setting [7]) is 1000 to 10000 nM; in experiment [2] (setting [11]), < 100 nM; at PRMT5 [3] (read-out: No Cofactor/rel IC50), 50 to 500 nM; at PRMT5 [4], < 50 nM; at PRMT5 [5], 50 to 500 nM; in experiment [6], > 1000 nM. Further, the MTAP intact/deleted ratio result in experiment [2] (setting [9]) is reported as “A (an IC50 ratio greater than or equal to 10 fold)”.
For the compound `Cc1cc(NC(=O)C(=O)N2C[C@@H](C)CC[C@@H]2c2ccc3sc(C4CCN(CC(F)F)CC4)nc3c2)cnc1N` [Compound 1377, N-(6-amino-5-methylpyridin-3-yl)-2-((2R,5S)-2-(2-(1-(2,2-difluoroethyl)piperidin-4-yl)benzo[d]thiazol-5-yl)-5-methylpiperidin-1-yl)-2-oxoacetamide], the IC50 was < 1000 nM in experiment [1] (setting [10]); < 100 nM in experiment [2] (setting [11]); < 50 nM on PRMT5 [3] (setting [12]); < 50 nM on PRMT5 [4]; 50 to 500 nM on PRMT5 [5]; 100 to 1000 nM in experiment [6]. The “MTAP intact/deleted ratio” value in experiment [2] (setting [9]) is given as “A (an IC50 ratio greater than or equal to 10 fold)”.
For the compound `COc1ncc(NC(=O)C(=O)N2CCCCC2c2ccccc2)cc1C(N)=O` (single isomer, unassigned) [Compound 199, 2-methoxy-5-(2-oxo-2-(2-phenylpiperidin-1-yl)acetamido)nicotinamide], the IC50 in experiment [1] (setting [7]) was > 10000 nM; in experiment [2] (SDMA in-cell western, read-out: HAP1 MTAP deleted IC50), > 1000 nM; on PRMT5 [3] (read-out: No Cofactor/rel IC50), > 500 nM; at PRMT5 [4], 50 to 500 nM; at PRMT5 [5] it was > 500 nM; in experiment [6] it was > 1000 nM. In addition, in experiment [2] (setting [9]), the MTAP intact/deleted ratio result was “C (an IC50 ratio of less than 3 fold)”.
With `CCc1cc(NC(=O)C(=O)N2CC(C)CCC2c2ccc3sc(C4CCN(C)CC4C)nc3c2)cnc1N` (racemic) [Compound 1227, N-(6-amino-5-ethyl-3-pyridyl)-2-oxo-2-[rac-(2R,5S)-5-methyl-2-[2-[rac-(3S,4R)-1,3-dimethyl-4-piperidyl]-1,3-benzothiazol-5-yl]-1-piperidyl]acetamide], the IC50 in experiment [1] (setting [7]) is < 1000 nM; in experiment [2] (setting [8]), < 100 nM; on PRMT5 [3] (read-out: No Cofactor/rel IC50), < 50 nM; on PRMT5 [4] it was < 50 nM; at PRMT5 [5], < 50 nM; in experiment [6], < 100 nM. Besides, the MTAP intact/deleted ratio result in experiment [2] (setting [13]) was “A (an IC50 ratio greater than or equal to 10 fold)”.
As for `COc1ncc(NC(=O)C(=O)N2C[C@@H](C)CC[C@@H]2c2ccc3sc(C4CCN(C5CC5)CC4)nc3c2)cc1C(N)=O` [Compound 1219, 5-(2-((2R,5S)-2-(2-(1-cyclopropylpiperidin-4-yl)benzo[d]thiazol-5-yl)-5-methylpiperidin-1-yl)-2-oxoacetamido)-2-methoxynicotinamide], the IC50 in experiment [1] (setting [7]) is < 1000 nM; in experiment [2] (setting [8]), < 100 nM; at PRMT5 [3] (read-out: No Cofactor/rel IC50) it was < 50 nM; at PRMT5 [4] it was < 50 nM; at PRMT5 [5] it was 50 to 500 nM; in experiment [6], < 100 nM. For the same compound, in experiment [2] (setting [13]), the MTAP intact/deleted ratio result is listed as “A (an IC50 ratio greater than or equal to 10 fold)”.
Turning to `Cc1cc(NC(=O)C(=O)N2C[C@H](C)CC[C@H]2c2ccc3c(c2)CCC(=O)N3)cnc1C` (relative stereo) [Compound 632], the IC50 in experiment [1] (setting [14]) was < 1000 nM; in experiment [2] (setting [11]) it was < 100 nM; at PRMT5 [3] (read-out: No Cofactor/rel IC50) it was < 50 nM; on PRMT5 [4] it was < 50 nM; on PRMT5 [5] it was 50 to 500 nM; in experiment [6], 100 to 1000 nM. Moreover, the MTAP intact/deleted ratio entry in experiment [2] (setting [9]) was “A (an IC50 ratio greater than or equal to 10 fold)”.
Turning to `Cc1cncc(NC(=O)C(=O)N2C[C@H](C)CC[C@H]2c2ccc(F)cc2)c1` (racemic) [Compound 89, rac-2-((2R,5S)-2-(4-fluorophenyl)-5-methylpiperidin-1-yl)-N-(5-methylpyridin-3-yl)-2-oxoacetamide], the IC50 in experiment [1] (setting [7]) was > 10000 nM; in experiment [2] (setting [11]), > 1000 nM; at PRMT5 [3] (setting [12]), 50 to 500 nM; at PRMT5 [4], 50 to 500 nM; at PRMT5 [5], > 500 nM; in experiment [6] it was > 1000 nM. In addition, the “MTAP intact/deleted ratio” value in experiment [2] (setting [9]) is listed as “C (an IC50 ratio of less than 3 fold)”.
As to `CCc1cc([C@@H]2CC[C@@H](C)CN2C(=O)C(=O)Nc2cncc(C(N)=O)c2)ccc1O` (racemic) [Compound 642, 5-[[2-[(2R,5S)-2-(3-Ethyl-4-hydroxy-phenyl)-5-methyl-1-piperidyl]-2-oxo-acetyl]amino]pyridine-3-carboxamide], the IC50 in experiment [1] (setting [14]) was < 1000 nM; in experiment [2] (setting [11]) it was < 100 nM; on PRMT5 [3] (read-out: No Cofactor/rel IC50), 50 to 500 nM; on PRMT5 [4] it was 50 to 500 nM; on PRMT5 [5], 50 to 500 nM; in experiment [6], > 1000 nM. The MTAP intact/deleted ratio entry in experiment [2] (setting [9]) is recorded as “A (an IC50 ratio greater than or equal to 10 fold)”.
In the case of `Cc1cc(NC(=O)C(=O)N2C[C@@H](C)CC[C@@H]2c2ccc3sc(C4CCN(C5CC5)CC4)nc3c2)cnc1N` [Compound 1181, N-(6-amino-5-methylpyridin-3-yl)-2-((2R,5S)-2-(2-(1-cyclopropylpiperidin-4-yl)benzo[d]thiazol-5-yl)-5-methylpiperidin-1-yl)-2-oxoacetamide], the IC50 was < 1000 nM in experiment [1] (setting [7]); < 100 nM in experiment [2] (setting [8]); < 50 nM on PRMT5 [3] (read-out: No Cofactor/rel IC50); < 50 nM on PRMT5 [4]; < 50 nM at PRMT5 [5]; < 100 nM in experiment [6]. For the same compound, the MTAP intact/deleted ratio entry in experiment [2] (setting [13]) is recorded as “B (an IC50 ratio greater than or equal to 3 fold but lower than 10 fold)”.
With `Cc1cc(NC(=O)C(=O)N2CC[C@H](N(C)C)C[C@H]2c2ccccc2)cnc1N` (racemic) [Compound 906], the IC50 in experiment [1] (setting [7]) was > 10000 nM; in experiment [2] (setting [11]) it was > 1000 nM; at PRMT5 [3] (read-out: No Cofactor/rel IC50), > 500 nM; at PRMT5 [4], 50 to 500 nM; at PRMT5 [5] it was 50 to 500 nM; in experiment [6] it was > 1000 nM. Besides, the MTAP intact/deleted ratio entry in experiment [2] (setting [9]) was “C (an IC50 ratio of less than 3 fold)”.

For the origin of these results see patent US11999727B2 (Tango Therapeutics, Inc., priority 2020, dated 2024).
